Experimental data: patent US7378413B2, “2-amino-3-(alkyl)-pyrimidone derivatives” (Sanofi Aventis, priority 2000, dated 2008)
Structures can show the parent of a compound that is named as a salt.

| melting point | Structure (SMILES) |
| --- | --- |
| 114 to 116 °C | CCCCCCCCNc1nc(-c2ccncc2)cc(=O)n1C |
| 193 to 197 °C | Cn1c(NCc2cccc(CN)c2)nc(-c2ccncc2)cc1=O (as salt: hydrochloride) |
| 142 to 143 °C | NCCCCCCNc1nc(-c2ccncc2)cc(=O)n1CCCc1ccccc1 (as salt: hydrochloride) |
| 225 to 228 °C | NCCCCCCNc1nc(-c2ccncc2)cc(=O)n1CCc1ccccc1 (as salt: hydrochloride) |
| 192 to 195 °C | NCCCCCCn1c(NCCCc2ccccc2)nc(-c2ccncc2)cc1=O (as salt: hydrochloride) |
| 125 to 127 °C | NCCCCCCn1c(NCCc2ccccc2)nc(-c2ccncc2)cc1=O (as salt: hydrochloride) |
| 212 to 215 °C | CN(C)CCn1c(NCCCc2ccccc2)nc(-c2ccncc2)cc1=O (as salt: hydrochloride) |
| 292 to 298 °C | NCCCCCCNc1nc(-c2ccncc2)cc(=O)n1Cc1ccccc1 (as salt: hydrochloride) |
| 193 to 196 °C | Cn1c(NCc2cccc(OCCCN)c2)nc(-c2ccncc2)cc1=O (as salt: hydrochloride) [Compound 26, 2-[[[3-(3-aminopropoxy)phenyl]methyl]amino]-3-methyl-6-pyridin-4-ylpyrimidin-4(3H)-one] |
| 259 to 262 °C | Cn1c(NCCCCCN)nc(-c2ccncc2)cc1=O (as salt: hydrochloride) [Compound 40, 2-(5-Amino-pentylamino)-3-methyl-6-pyridin-4-yl-3H-pyrimidin-4-one] |
| 134 to 136 °C | NCCCCNc1nc(-c2ccncc2)cc(=O)n1CCCc1ccccc1 (as salt: hydrochloride) [Compound 41, 2-(4-Amino-butylamino)-3-(3-phenyl-propyl)-6-pyridin-4-yl-3H-pyrimidin-4-one] |
| 235 to 238 °C | NCCCCCNc1nc(-c2ccncc2)cc(=O)n1CCc1ccccc1 (as salt: hydrochloride) [Compound 43, 2-(5-Amino-pentylamino)-3-phenethyl-6-pyridin-4-yl-3H-pyrimidin-4-one] |
| 246 to 248 °C | NCCCCNc1nc(-c2ccncc2)cc(=O)n1CCc1ccccc1 (as salt: hydrochloride) [Compound 45, 2-(4-Amino-butylamino)-3-phenethyl-6-pyridin-4-yl-3H-pyrimidin-4-one] |
| 162 to 164 °C | CCCCCCCCCCNc1nc(-c2ccncc2)cc(=O)n1C (as salt: hydrochloride) [Compound 53, 2-Decylamino-3-methyl-6-pyridin-4-yl-3H-pyrimidin-4-one] |
| 188 to 191 °C | CN(CCCC1CCCCC1)c1nc(-c2ccncc2)cc(=O)n1C (as salt: hydrochloride) [Compound 68, 2-[(3-Cyclohexyl-propyl)-methyl-amino]-3-methyl-6-pyridin-4-yl-3H-pyrimidin-4-one] |
| 225 to 232 °C | Cn1c(NCc2cccc(OCCC3CCNCC3)c2)nc(-c2ccncc2)cc1=O (as salt: hydrochloride) [Compound 72, 3-methyl-2-[3-(2-piperidin-4-yl-ethoxy)-benzylamino]-6-pyridin-4-yl-3H-pyrimidin-4-one] |
| 157 to 160 °C | CNCc1ccc(CCN(C)c2nc(-c3ccncc3)cc(=O)n2C)cc1 (as salt: hydrochloride) [Compound 75, 3-Methyl-2-{methyl-[2-(4-methylaminomethyl-phenyl)-ethyl]-amino}-6-pyridin-4-yl-3H-pyrimidin-4-one] |
| 185 to 189 °C | Cn1c(N(CCCN)CCCc2ccccc2)nc(-c2ccncc2)cc1=O (as salt: hydrochloride) [Compound 77, 2-[(3-Amino-propyl)-(3-phenyl-propyl)-amino]-3-methyl-6-pyridin-4-yl-3H-pyrimidin-4-one] |
| 123 to 126 °C | NCCCCCn1c(NCCCc2ccccc2)nc(-c2ccncc2)cc1=O (as salt: hydrochloride) [Compound 79, 3-(5-Amino-pentyl)-2-(3-phenyl-propylamino)-6-pyridin-4-yl-3H-pyrimidin-4-one] |
| 124 to 127 °C | NCCCCn1c(NCCCc2ccccc2)nc(-c2ccncc2)cc1=O (as salt: hydrochloride) [Compound 80, 3-(4-Amino-butyl)-2-(3-phenyl-propylamino)-6-pyridin-4-yl-3H-pyrimidin-4-one] |
| 210 to 213 °C | Cn1c(NCc2cccc(OCCCc3ccncc3)c2)nc(-c2ccncc2)cc1=O (as salt: hydrochloride) [Compound 81, 3-Methyl-6-pyridin-4-yl-2-[3-(3-pyridin-4-yl-propoxy)-benzylamino]-3H-pyrimidin-4-one] |
| 145 to 148 °C | NCCn1c(NCCCc2ccccc2)nc(-c2ccncc2)cc1=O (as salt: hydrochloride) [Compound 84, 3-(2-Amino-ethyl)-2-(3-phenyl-propylamino)-6-pyridin-4-yl-3H-pyrimidin-4-one] |

| melting point | Structure (SMILES) |
| --- | --- |
| 198 to 201 °C | COc1ccccc1CCNc1nc(-c2ccncc2)cc(=O)n1CCCN (as salt: hydrochloride) [Compound 85, 3-(3-Amino-propyl)-2-[2-(2-methoxy-phenyl)-ethylamino]-6-pyridin-4-yl-3H-pyrimidin-4-one] |
| 178 to 180 °C | NCCCCCn1c(NCCc2ccccc2)nc(-c2ccncc2)cc1=O (as salt: hydrochloride) [Compound 88, 3-(5-Amino-pentyl)-2-phenethylamino-6-pyridin-4-yl-3H-pyrimidin-4-one] |
| 170 to 175 °C | NCCCCn1c(NCCc2ccccc2)nc(-c2ccncc2)cc1=O (as salt: hydrochloride) [Compound 89, 3-(4-Amino-butyl)-2-phenethylamino-6-pyridin-4-yl-3H-pyrimidin-4-one] |
| 163 to 168 °C (dec.) | NCCCCNc1nc(-c2ccncc2)cc(=O)n1Cc1ccccc1 (as salt: hydrochloride) [Compound 90, 2-(4-Amino-butylamino)-3-benzyl-6-pyridin-4-yl-3H-pyrimidin-4-one] |
| 198 to 200 °C | Cn1c(NCC=Cc2ccccc2)nc(-c2ccncc2)cc1=O (as salt: hydrochloride) [Compound 95, 3-Methyl-2-(3-phenyl-allylamino)-6-pyridin-4-yl-3 H-pyrimidin-4-one] |
| 187 to 189 °C | Cn1c(NCCCc2ccccc2)nc(-c2ccncc2)cc1=O (as salt: hydrochloride) [Compound 96, 3-Methyl-2-(3-phenyl-propylamino)-6-pyridin-4-yl-3H-pyrimidin-4-one] |
| 217 to 218 °C | Cn1c(NCCc2c[nH]c3ccccc23)nc(-c2ccncc2)cc1=O (as salt: oxalate) [Compound 29, 2-[[2-(1H-indol-3-yl)ethyl]amino]-3-methyl-6-pyridin-4-ylpyrimidin-4(3H)-one] |
| 239 to 241 °C | CCNc1nc(-c2ccncc2)cc(=O)n1C (as salt: oxalate) [Compound 36, 2-(ethylamino)-3-methyl-6-pyridin-4-ylpyrimidin-4(3H)-one] |
| 228 to 230 °C | Cn1c(N2CCCCC2)nc(-c2ccncc2)cc1=O (as salt: tartrate) [Compound 38, 2-(piperidin-1-yl)-3-methyl-6-pyridin-4-ylpyrimidin-4(3H)-one] |
| 149.2 to 149.5 °C | COc1ccccc1CCNc1nc(-c2ccncc2)cc(=O)n1C [Compound 4, 2-[[2-(2-methoxyphenyl)ethyl]amino]-3-methyl-6-pyridin-4-ylpyrimidin-4(3H)-one] |
| 184 to 187.2 °C | Cn1c(NCCc2ccccc2F)nc(-c2ccncc2)cc1=O [Compound 5, 2-[[2-(2-fluorophenyl)ethyl]amino]-3-methyl-6-pyridin-4-ylpyrimidin-4(3H)-one] |
| 158.9 to 159.2 °C | Cn1c(NCCc2cccc(F)c2)nc(-c2ccncc2)cc1=O [Compound 6, 2-[[2-(3-fluorophenyl)ethyl]amino]-3-methyl-6-pyridin-4-ylpyrimidin-4(3H)-one] |
| 178.8 to 178.9 °C | Cn1c(NCCc2ccc(F)cc2)nc(-c2ccncc2)cc1=O [Compound 7, 2-[[2-(4-fluorophenyl)ethyl]amino]-3-methyl-6-pyridin-4-ylpyrimidin-4(3H)-one] |
| 175.2 to 175.4 °C | Cn1c(NCCc2ccccc2Cl)nc(-c2ccncc2)cc1=O [Compound 9, 2-[[2-(2-chlorophenyl)ethyl]amino]-3-methyl-6-pyridin-4-ylpyrimidin-4(3H)-one] |
| 197.3 to 197.5 °C | Cn1c(NCCc2ccc(N)cc2)nc(-c2ccncc2)cc1=O [Compound 11, 2-[[2-(4-aminophenyl)ethyl]amino]-3-methyl-6-pyridin-4-ylpyrimidin-4(3H)-one] |
| 187 to 187.1 °C | COc1ccc(CCNc2nc(-c3ccncc3)cc(=O)n2C)cc1OC [Compound 12, 2-[[2-(3,4-dimethoxyphenyl)ethyl]amino]-3-methyl-6-pyridin-4-ylpyrimidin-4(3H)-one] |
| 180.9 to 181.3 °C | COc1ccc(OC)c(CCNc2nc(-c3ccncc3)cc(=O)n2C)c1 [Compound 13, 2-[[2-(2,5-dimethoxyphenyl)ethyl]amino]-3-methyl-6-pyridin-4-ylpyrimidin-4(3H)-one] |
| 165.3 to 165.5 °C | Cn1c(NCCc2ccc(Cl)cc2)nc(-c2ccncc2)cc1=O [Compound 14, 2-[[2-(4-chlorophenyl)ethyl]amino]-3-methyl-6-pyridin-4-ylpyrimidin-4(3H)-one] |
| 257.4 to 257.9 °C | Cn1c(NCCc2ccc(O)cc2)nc(-c2ccncc2)cc1=O [Compound 15, 2-[[2-(4-hydroxyphenyl)ethyl]amino]-3-methyl-6-pyridin-4-ylpyrimidin-4(3H)-one] |
| 184.7 to 185 °C | Cc1ccc(CCNc2nc(-c3ccncc3)cc(=O)n2C)cc1 [Compound 16, 2-[[2-(4-methylphenyl)ethyl]amino]-3-methyl-6-pyridin-4-ylpyrimidin-4(3H)-one] |
| 162.8 to 163 °C | Cn1c(NCCc2cccc(Cl)c2)nc(-c2ccncc2)cc1=O [Compound 18, 2-[[2-(3-chlorophenyl)ethyl]amino]-3-methyl-6-pyridin-4-ylpyrimidin-4(3H)-one] |
